Values of other authors, collected in US5801147A, “Polypeptides and use thereof” (Takeda Chemical Industries, Ltd., priority 1991, dated 1998).
No end group written: not given here.

Test system: hypophysis cells
Details: prior art

Row | Substance | c-AMP-producing activity (background statement)
1 | PACAP23: polypeptide consisting of 23 amino acid residues on the N-terminal side of PACAP38 (HSDGIFTDSYSRYRKQMAVKKYL; ends and bridges not checked; UniProt P18509 132-154, looked up, fragment) | the same activity as that of PACAP27
2 | PACAP24: polypeptide consisting of 24 amino acid residues on the N-terminal side of PACAP38 (HSDGIFTDSYSRYRKQMAVKKYLA; ends and bridges not checked; UniProt P18509 132-155, looked up, fragment) | the same activity as that of PACAP27
3 | PACAP25: polypeptide consisting of 25 amino acid residues on the N-terminal side of PACAP38 (HSDGIFTDSYSRYRKQMAVKKYLAA; ends and bridges not checked; UniProt P18509 132-156, looked up, fragment) | the same activity as that of PACAP27
4 | PACAP26: polypeptide consisting of 26 amino acid residues on the N-terminal side of PACAP38 (HSDGIFTDSYSRYRKQMAVKKYLAAV; ends and bridges not checked; UniProt P18509 132-157, looked up, fragment) | the same activity as that of PACAP27
5 | PACAP27: a polypeptide consisting of 27 amino acid residues on the N-terminal side of PACAP38 (HSDGIFTDSYSRYRKQMAVKKYLAAVL; ends and bridges not checked; UniProt P18509 132-158, looked up) | The activity of PACAP38 has also been found
6 | PACAP38: polypeptide consisting of 38 amino acid residues, discovered in humans, sheep and rats (SEQ ID NO:1) (HSDGIFTDSYSRYRKQMAVKKYLAAVLGKRYKQRVKNK; ends and bridges not checked) | enhances the production of intracellular c-AMP in hypophysis cells
